Measured values from US8343696B2, “Colored curable composition, fluorine-containing dipyrromethene compound and tautomer thereof, and fluorine-containing dipyrromethene metal complex and tautomer thereof, and color filter using the same and method for producing the color filter” (FUJIFILM Corporation, priority 2008, dated 2013).

Columns and labels:
Type in all cases: physicochemical
[1] = Absorption spectrum in ethyl acetate solution (spectrophotometer UV-2400PC)
Procedure: In consideration of film thickness, the molar absorption coefficient of the specific metal complex compounds-1, -2, -3 and -4 of the invention is preferably as high as possible, and 60,000 or higher is preferable. The maximum absorption wavelength (λmax) thereof is preferably from 520 nm to 580 nm, and more preferably from 530 nm to 570 nm, in order to improve color purity. The maximum absorption wavelength and the molar absorption coefficient are determined by using a spectrophotometer UV-2400PC (manufactured by Shimadzu Corporation).
The molar absorption coefficient (ε) of each of the obtained compounds was measured in an ethyl acetate solution using a spectrophotometer (trade name: UV-2400PC; manufactured by Shimadzu Corporation). The absorbance (Abs) at 450 nm was evaluated by normalizing the absorbance at a maximum absorption wavelength (λmax) to 1.0. […] The measurement results of the absorbance (Abs value), maximum absorption wavelength (λmax), and molar absorption coefficient (ε) are shown in Table 1.
By the method similar to the reaction scheme in Synthesis Example 1 above, the exemplary compounds (dipyrromethene metal complex compounds or tautomers thereof) shown in Table 1 were synthesized. The identification of the compounds and the measurement of the maximum absorption wavelength (λmax) and the molar absorption coefficient (ε) of the compounds were performed similarly to Synthesis Example 1 above.

[2] = Storage stability of colored resist solution (precipitation after one month at room temperature); design: key: A: No precipitation was observed; B: Slight precipitation was observed; C: Precipitation was observed; conditions: negative-working colored resist solution, visual precipitation
Source text: 9.4 g of the resist solution obtained in section 1 above and 0.35 g of the exemplary compound Ia-12 synthesized above (a compound represented by Formula (4): dipyrromethene complex compound) were mixed and dissolved, whereby a colored resist solution (a negative-working ultraviolet-sensitive colored curable composition) was obtained.
The colored resist solution was stored for one month at room temperature, and then degree of precipitation was visually observed. The storage stability was evaluated according to the following criteria.
A: No precipitation was observed
B: Slight precipitation was observed
C: Precipitation was observed

[3] = Transmittance at 450 nm of the color filter; conditions: negative-working colored resist, 1.0 μm film; transmittance at λmax normalized to 2%
Procedure: The colored resist solution obtained in section 3 above was applied to an undercoat layer side of the glass substrate having an undercoat layer obtained in section 2 above by a spin coater such that a film thickness was 1.0 μm. Subsequently, the film was pre-baked at 100° C. for 120 sec, whereby a monochromatic color filter was obtained.
The transmission spectrum of the color filter obtained above was measured, and the transmittance at 450 nm was evaluated according to the following criteria. The transmittance of the color filter at 450 nm was evaluated by correcting (normalizing) the transmittance at the maximum absorption wavelength of the colorant included in the color filter to 2%. A larger transmittance indicates greater transmission of blue light, which indicates favorable magenta or violet color that can be used in a blue filter.
A: Transmittance at 450 nm was 90% or more
B: Transmittance at 450 nm was 80% or more but not more than 90%
C: Transmittance at 450 nm was not more than 80%

[4] = Heat resistance of coating film (color difference ΔEab before and after heating); conditions: 100° C. for 1 hour on hot plate
Procedure: A glass substrate having undercoat layer formed by applying the colored resin composition obtained in section 3 above was heat-treated at 100° C. for 1 hour using a hot plate, and the color difference (ΔEab) between before and after the heating was determined by using a […] MCPD-1000 (trade name, manufactured by Otsuka Electronics Co., Ltd.). The heat resistance was evaluated according to the following criteria. A smaller AEab value indicates better heat resistance.
(§1) A: ΔEab value was less than 6
(§2) B: ΔEab value was from 6 to 10
(§3) C: ΔEab value was more than 10

[5] = Light-fastness of coating film (color difference ΔEab before and after xenon lamp irradiation); conditions: xenon lamp 20,000 luxes for 10 hours (200,000 lux·h)
Procedure: A glass substrate having undercoat layer formed by applying the colored resin composition obtained in section 3 above was irradiated with a xenon lamp at an intensity of 20,000 luxes for 10 hours (equivalent to 200,000 lux·h), and the color difference ΔEab between before and after the irradiation was determined. The light-fastness was evaluated according to the following criteria. A smaller ΔEab value indicates better light-fastness.
as §1, §2, §3

maximum absorption wavelength (λmax) [1] [nm] | molar absorption coefficient (ε) [1] | Abs value at 450 nm when normalized to Abs = 1.0 at λmax [1] | Storage stability [2] | Heat resistance [4] | Light-fastness [5] | SMILES | Transmittance at 450 nm [3]
562 | 76,500 | 0.0195 | A | A (ΔEab value was less than 6) | A (ΔEab value was less than 6) | CC1CC(C(C)(C)C)C(OC(=O)c2c(-c3ccccc3)c3[n](c2NC(=O)c2cc(C(F)(F)F)cc(C(F)(F)F)c2)[Zn-]([OH])[N+]2=C(NC(=O)C(C)Sc4cc(C(=O)O)cc(C(=O)O)c4)C(C#N)=C(c4ccccc4)C2=C3)C(C(C)(C)C)C1 (stereo not shown) [Ib-41] | A (Transmittance at 450 nm was 90% or more)
560 | 66,100 | 0.0186 | B | A (ΔEab value was less than 6) | A (ΔEab value was less than 6) | CC1CC(C(C)(C)C)C(OC(=O)c2c(-c3ccccc3)c3[n](c2NC(=O)c2cccc(F)c2C(=O)O)[Zn-]([OH])[N+]2=C(NC(=O)C(C)Sc4cc(C(=O)O)cc(C(=O)O)c4)C(C#N)=C(c4ccccc4)C2=C3)C(C(C)(C)C)C1 (stereo not shown) [Ib-46] | A (Transmittance at 450 nm was 90% or more)
562 | 80,500 | 0.0173 | A | A (ΔEab value was less than 6) | A (ΔEab value was less than 6) | CC1CC(C(C)(C)C)C(OC(=O)c2c(-c3ccccc3)c3[n](c2NC(=O)c2ccc(F)c(F)c2)[Zn-]([OH])[N+]2=C(NC(=O)C(C)Sc4cc(C(=O)O)cc(C(=O)O)c4)C(C#N)=C(c4ccccc4)C2=C3)C(C(C)(C)C)C1 (stereo not shown) [Ib-35] | A (Transmittance at 450 nm was 90% or more)
558 | 83,200 | 0.0099 | A | A (ΔEab value was less than 6) | A (ΔEab value was less than 6) | Cc1c(C(=O)OC2C(C(C)(C)C)CC(C)CC2C(C)(C)C)c(NC(=O)c2ccc(C(F)(F)F)cc2)[n]2c1C=C1C(c3ccccc3)=C(C#N)C(NC(=O)C(C)Sc3cc(C(=O)O)cc(C(=O)O)c3)=[N+]1[Zn-]2[OH] (stereo not shown) [Ia-23] | A (Transmittance at 450 nm was 90% or more)

Continued, molecule first:

SMILES | maximum absorption wavelength (λmax) [1] [nm] | molar absorption coefficient (ε) [1] | Abs value at 450 nm when normalized to Abs = 1.0 at λmax [1] | Storage stability [2] | Heat resistance [4] | Light-fastness [5] | Transmittance at 450 nm [3]
Cc1c(C(=O)OC2C(C(C)(C)C)CC(C)CC2C(C)(C)C)c(NC(=O)c2cc(F)cc(F)c2)[n]2c1C=C1C(c3ccccc3)=C(C#N)C(NC(=O)C(C)Sc3cc(C(=O)O)cc(C(=O)O)c3)=[N+]1[Zn-]2[OH] (stereo not shown) [Ia-38] | 558 | 79,400 | 0.0191 | A | A (ΔEab value was less than 6) | A (ΔEab value was less than 6) | A (Transmittance at 450 nm was 90% or more)
CC1CC(C(C)(C)C)C(OC(=O)c2c(-c3ccccc3)c(C=C3N=C(NC(=O)C(C)SCCCS(=O)(=O)[O-])C(C#N)=C3c3ccccc3)[n]([Zn][OH])c2NC(=O)c2cc(F)cc(F)c2)C(C(C)(C)C)C1.[Na+] (stereo not shown) [Ib-40] | 562 | 95,600 | 0.0082 | A | B (ΔEab value was from 6 to 10) | B (ΔEab value was from 6 to 10) | A (Transmittance at 450 nm was 90% or more)
CC1CC(C(C)(C)C)C(OC(=O)C2=C(c3ccccc3)C3=Cc4c(-c5ccccc5)c(C(=O)OC5C(C(C)(C)C)CC(C)CC5C(C)(C)C)c(NC(=O)c5ccc(F)c(Br)c5)[n]4[Zn-]([OH])[N+]3=C2NC(=O)c2ccc(F)c(Br)c2)C(C(C)(C)C)C1 (stereo not shown) [IIb-24] | 564 | 100,900 | 0.091 | B | A (ΔEab value was less than 6) | A (ΔEab value was less than 6) | A (Transmittance at 450 nm was 90% or more)
CC(=O)NC1=[N+]2C(=Cc3c(-c4ccccc4)c(C(=O)OC4C(C(C)(C)C)CC(C)CC4C(C)(C)C)c(NC(=O)c4cc(F)c(F)c(F)c4)[n]3[Zn-]2[OH])C(c2ccccc2)=C1C#N (stereo not shown) [Ib-61] | 558 | 89,100 | 0.0101 | A | A (ΔEab value was less than 6) | A (ΔEab value was less than 6) | A (Transmittance at 450 nm was 90% or more)
CC1CC(C(C)(C)C)C(OC(=O)C2=C(c3ccccc3)C3=Cc4c(-c5ccccc5)c(C(=O)OC5C(C(C)(C)C)CC(C)CC5C(C)(C)C)c(NC(=O)c5c(F)c(F)c(F)c(F)c5F)[n]4[Zn-]([OH])[N+]3=C2NC(=O)c2c(F)c(F)c(F)c(F)c2F)C(C(C)(C)C)C1 (stereo not shown) [IIb-40] | 562 | 107,300 | 0.0087 | A | A (ΔEab value was less than 6) | A (ΔEab value was less than 6) | A (Transmittance at 450 nm was 90% or more)
CC1=C(C(=O)OC2C(C(C)(C)C)CC(C)CC2C(C)(C)C)C(NC(=O)c2ccc(C(F)(F)F)cc2F)=[N+]2C1=Cc1c(C)c(C(=O)OC3C(C(C)(C)C)CC(C)CC3C(C)(C)C)c(NC(=O)c3ccc(C(F)(F)F)cc3F)[n]1[Zn-]2[OH] (stereo not shown) [IIa-15] | 550 | 116,700 | 0.0095 | B | A (ΔEab value was less than 6) | A (ΔEab value was less than 6) | A (Transmittance at 450 nm was 90% or more)
